Data set [1] deals with microfluidic devices seeded with human liver cells. Kind of data set: APAP metabolite quantification by LC-MS in human chips. The conditions noted are these: daily 3 mM for 20 days, flow 10 μL/hr. Type of data set: in vitro ADME. From the text: After APAP exposure to microfluidic devices seeded with human liver cells, effluent metabolite levels were quantified using LC-MS analysis. […] APAP-Glucuronide (APAP-Glu), the primary metabolite of APAP, was not quantified using a standard curve. Rather, the LC-MS peak area of APAP-Glu was reported corresponding to each sample.

Data set [2] has the same test system. The data set is described as follows: Albumin secretion, microfluidic devices seeded with human liver cells. Type of data set: cell-based. The text has this: Prior to cell seeding, microfluidic devices, in this case S-1 Chips (Emulate, Inc. Boston, Mass., USA), were functionalized using Emulate's proprietary protocols and reagents (ERT™), including those described herein. After surface functionalization, both channels of the microfluidic device were coated with species-specific extracellular matrices (ECM). For the human bound microfluidic device, a mixture of collagen type I (Corning, Corning, N.Y., USA) and fibronectin, e.g. bovine, (Gibco) was used; for the rat bound microfluidic devices a mixture of collagen type IV, e.g. human placenta, (Sigma-Aldrich, St. Louis, Mo., USA) and fibronectin (Gibco) was used; for the dog bound microfluidic devices a mixture of collagen I (Corning), collagen type IV (Sigma-Aldrich), and fibronectin (Gibco) was used. […] For the dual-cell culture model (hepatocytes and endothelial cells), the LSECs were seeded at a concentration of 2-4 million cells/mL in the lower vascular channel. […] After cell seeding, the upper channel of the microfluidic device was maintained in William's E Medium (WEM) containing Glutamax (Gibco), ITS+(Corning), dexamethasone (Sigma-Aldrich), ascorbic acid (Sigma-Aldrich), fetal bovine serum (FBS) (Sigma-Aldrich), and Penicillin/Streptomycin (Sigma-Aldrich). The vascular channel of the microfluidic device was maintained with species-specific endothelial media (Emulate, Inc.). Two days after seeding, the microfluidic devices were connected to the Human Emulation System™ (Emulate, Inc.), as described in part herein, and both of the microfluidic device channels were perfused at 30 μL/hr to provide a continuous supply of fresh media for the duration of the experiments. Albumin secretion from the upper channel was quantified using ELISA kits for human, rat, and dog models effluent samples (human and rat: Abcam; dog: Immunology Consultants Laboratory, Inc., Portland, Oreg., USA) and the assays were performed according to the protocol provided by each vendor.

Data set [3] is described as follows: Phase I dose-escalating study, clinical chemistry (ALT, AST). The conditions noted are these: Phase I clinical trial. It is filed as in vivo, human. The method, then: A double-blind, placebo-controlled, randomized, dose-escalating, sequential group design was conducted in 2 Parts. Subjects received daily doses of JNJ-28312141 or placebo for a total of 2 weeks (the first dose on Day 1 and then daily on Days 3 to 14). Part 1 included 5 cohorts of healthy male or female subjects. In Part 2 of the study, 2 cohorts of postmenopausal women (PMW) were enrolled. Within each cohort of 12 subjects, 9 subjects were randomized to JNJ-1, and 3 subjects were randomized to placebo. Dose escalation only occurred after the Sponsor and the Investigator had performed a satisfactory review of the preliminary safety data including those obtained on the post-study follow up visit (anytime between Days 30 to 32), and of the drug concentration and PK data (if available) at the current dose level. In addition to efficacy endpoints, and pharmacokinetics, an assessment of safety included measurement of clinical chemistry parameters, including ALT and AST.

The nature of data set [4]: Repeat-dose toxicity study of JNJ-1 in dogs. It is filed as in vivo. Conditions: dog study. As for the experimental part: (§1) JNJ-1, prepared in purified water, was administered once daily for 14 days to 5 male and 5 female rats at doses of 5, 25, and 125 mg/kg. In a separate study, JNJ-1, also in purified water, was administered once daily for 4 weeks to 5 male and 5 female dogs at 0 or 40 mg/kg/day, and to 3 males and 3 female dogs at 2 or 10 mg/kg/day. Mortality, clinical observations, body weight, food consumption, clinical pathology, gross necropsy and microscopic examination of selected tissues, and toxicokinetics were evaluated. Rats or dogs were fasted overnight prior to blood collection for measurement of clinical pathology parameters (including AST and ALT) at the end of 14 days (rats) or 4 weeks (dogs) of dosing. Histology slides (hematoxylin and eosin staining and Mason's Trichrome staining) of the liver tissues were prepared and evaluated microscopically. The quantification of JNJ-1 was conducted using a qualified liquid chromatographic-triple quadrupole mass spectrometric (LC-MS/MS) procedure.

The next data set has as its system Kupffer cells. The data set is described as follows: Kupffer cell count (CD68-positive cells) in human chips. The conditions noted are these: human quadruple-cell chips. Type of data set: cell-based. As for the experimental part: Microfluidic devices seeded with liver cells and static sandwich plate cultures were fixed with 4% paraformaldehyde for 15 minutes at room temperature, washed with PBS, and permeabilized (saponin 1% with 10% serum in PBS). Blocking and incubation with the primary antibodies (overnight in PBS containing 1% BSA or PBS containing 10% serum and 1% BSA) was followed by a two-hour incubation with secondary antibodies (Cell Signaling, Danvers, Mass., USA) in the same blocking buffer. Immunostaining was performed with specific primary antibodies (anti-MRP2, anti-stabilin-1, anti-BSEP, anti-α-SMA, anti-CD68; Abcam, Cambridge, Mass., USA) and images were acquired with either an Olympus fluorescence microscope (IX83) or Zeiss confocal microscope (AxiovertZ1 LSM880).
The number of CD68- or α-SMA-positive cells in the vascular channel in each group was counted in each field of view ([…]) and quantified.

A short description of data set [5]: Repeat-dose toxicity study of JNJ-1 in rats. Type of data set: in vivo. The conditions noted are these: rat study. As for the experimental part:
as §1

Data set [6] relates to microfluidic devices seeded with human liver cells. Kind of data set: Cytokine release (IL-6, MCP-1, IP-10) from the vascular channel of human chips. Type of data set: cell-based. Conditions: human quadruple-cell chips. The method, then: Cytokines: Release of IL-6, MCP-1, and IP-10 from the vascular channel was quantified using U-PLEX biomarker human assays (Meso Scale Diagnostics, Rockville, Md., USA) and the assays were performed according to the protocol provided by the vendor.

For data set [7] the following is noted: human plasma; cited from earlier work.
Data set [8] deals with microfluidic devices seeded with rat liver cells. Kind of data set: Albumin secretion / hepatocyte function, microfluidic devices seeded with rat liver cells. It is filed as cell-based. The conditions noted are these: Hepatocyte, 168 h; dual-cell rat chips, daily administration 1-100 μM, 7 days; read-out: IC50, decrease in albumin secretion. From the text:
(§2) Prior to cell seeding, microfluidic devices, in this case S-1 Chips (Emulate, Inc. Boston, Mass., USA), were functionalized using Emulate's proprietary protocols and reagents (ERT™), including those described herein. After surface functionalization, both channels of the microfluidic device were coated with species-specific extracellular matrices (ECM). For the human bound microfluidic device, a mixture of collagen type I (Corning, Corning, N.Y., USA) and fibronectin, e.g. bovine, (Gibco) was used; for the rat bound microfluidic devices a mixture of collagen type IV, e.g. human placenta, (Sigma-Aldrich, St. Louis, Mo., USA) and fibronectin (Gibco) was used; for the dog bound microfluidic devices a mixture of collagen I (Corning), collagen type IV (Sigma-Aldrich), and fibronectin (Gibco) was used. […] For the dual-cell culture model (hepatocytes and endothelial cells), the LSECs were seeded at a concentration of 2-4 million cells/mL in the lower vascular channel. […] Albumin secretion from the upper channel was quantified using ELISA kits for human, rat, and dog models effluent samples (human and rat: Abcam; dog: Immunology Consultants Laboratory, Inc., Portland, Oreg., USA) and the assays were performed according to the protocol provided by each vendor.

Data set [9] relates to microfluidic devices seeded with dog liver cells. The data set is described as follows: Albumin secretion, microfluidic devices seeded with dog liver cells. It is filed as cell-based. Conditions: Canis lupus familiaris, 168 h; dual-cell dog chips, daily administration 1-100 μM, 7 days; read-out: IC50, decrease in albumin secretion.
Text: as §2

Data set [10] has as its system 3D human spheroid hepatic cultures. The conditions noted are these: compared with human chip IC50; cited from earlier work.
The target in a further data set is T1, BSEP (Homo sapiens, UniProt O95342).
T1 construct: Primary rat, dog or human hepatocytes were cultured in the upper parenchymal channel; endogenous in cells; host or cells: primary human hepatocytes in a microfluidic Liver-Chip, co-cultured with LSECs
T1 sequence (O95342 whole entry): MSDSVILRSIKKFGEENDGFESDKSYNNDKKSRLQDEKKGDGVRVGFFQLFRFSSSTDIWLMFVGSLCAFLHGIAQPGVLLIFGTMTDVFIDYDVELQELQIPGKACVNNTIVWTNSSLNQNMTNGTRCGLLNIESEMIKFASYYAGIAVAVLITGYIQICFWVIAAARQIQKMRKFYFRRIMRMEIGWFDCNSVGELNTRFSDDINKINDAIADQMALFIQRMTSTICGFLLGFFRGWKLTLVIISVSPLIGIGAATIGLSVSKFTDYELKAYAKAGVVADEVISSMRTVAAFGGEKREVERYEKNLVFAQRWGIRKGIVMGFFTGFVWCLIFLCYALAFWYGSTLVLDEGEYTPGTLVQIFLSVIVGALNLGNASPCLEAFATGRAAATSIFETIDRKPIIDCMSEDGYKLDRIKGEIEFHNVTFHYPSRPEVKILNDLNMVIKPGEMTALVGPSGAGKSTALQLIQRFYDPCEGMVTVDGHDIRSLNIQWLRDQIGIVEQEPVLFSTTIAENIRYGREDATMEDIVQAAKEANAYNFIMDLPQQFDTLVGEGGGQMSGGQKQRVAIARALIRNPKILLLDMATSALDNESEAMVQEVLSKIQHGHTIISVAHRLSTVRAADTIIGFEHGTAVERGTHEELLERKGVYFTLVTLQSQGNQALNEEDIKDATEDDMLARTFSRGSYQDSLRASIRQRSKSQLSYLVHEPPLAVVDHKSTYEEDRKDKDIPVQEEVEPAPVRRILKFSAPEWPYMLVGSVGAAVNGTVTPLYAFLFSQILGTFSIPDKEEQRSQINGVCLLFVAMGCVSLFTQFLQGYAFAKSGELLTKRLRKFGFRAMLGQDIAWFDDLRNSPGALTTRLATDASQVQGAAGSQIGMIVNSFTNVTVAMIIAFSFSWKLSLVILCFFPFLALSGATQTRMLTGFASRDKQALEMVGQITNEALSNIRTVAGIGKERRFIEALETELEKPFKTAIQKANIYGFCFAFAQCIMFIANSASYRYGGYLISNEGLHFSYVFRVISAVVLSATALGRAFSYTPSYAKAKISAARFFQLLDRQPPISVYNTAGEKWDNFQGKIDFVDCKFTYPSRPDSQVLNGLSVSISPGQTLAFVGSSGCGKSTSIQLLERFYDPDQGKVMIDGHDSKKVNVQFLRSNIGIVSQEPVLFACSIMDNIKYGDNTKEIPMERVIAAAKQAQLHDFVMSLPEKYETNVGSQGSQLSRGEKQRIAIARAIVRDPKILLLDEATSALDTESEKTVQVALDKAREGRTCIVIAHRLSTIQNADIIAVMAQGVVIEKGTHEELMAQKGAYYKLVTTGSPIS
Kind of data set: CLF efflux (BSEP activity) in human hepatocytes on chip. It is filed as cell-based. Conditions: 30 μM.

The test system of data set [11] is primary human hepatocytes and liver sinusoidal endothelial cells (LSECs). The data set is described as follows: High-content confocal imaging of microfluidic devices seeded with liver cells. It is filed as cell-based. The conditions noted are these: 10 μM, six hours of exposure. The method, then: Microfluidic devices were obtained from Emulate Inc. (USA) and are illustrated in FIG. 1A. The channels of the microfluidic devices were coated with a proprietary mixture of extracellular matrix and were incubated overnight at 37° C. Primary human cryopreserved hepatocytes sourced from ThermoFisher, as one example, were seeded in the top channel at a density of 3.5×10^6 cells/mL, and were left to form an attached monolayer at 37° C. in a humidified incubator with a 95%/5% ratio of air to CO2.
Twenty-four hours after seeding, the hepatocyte monolayer was overlaid with Matrigel Matrix sourced from Corning, USA. Primary human cryopreserved liver sinusoidal endothelial cells, also known as LSECs, were seeded on the bottom channel of the microfluidic device at a density of 2 to 4×10^6 cells/mL in endothelial medium, also known as CSC medium or Base LSEC Culture Medium; CSC basal Medium plus Culture-Boost (2%), Cell Systems, and Pen/Strep (1%), Sigma. In some embodiments, endothelial cells are cultured in Complete LSEC Culture Medium, Base LSEC Culture Medium plus 10% FBS.
Microfluidic devices were inverted for 2 hours to allow attachment underneath the membrane, and then inverted back before being connected to a platform containing a pneumatic pump source from Emulate Inc. Media was flowed through both channels at a flow rate of 30 μL/hour and was refreshed every other day.
The effects of agents, such as staurosporine on cell phenotype was evaluated. Microfluidic devices were perfused with staurosporine (0 and 10 μM) for 6 hours at a flow rate of 30 μL/hour. A compound was also tested in the microfluidic devices seeded with liver cells. The microfluidic devices seeded with liver cells were perfused with the compound at the concentrations of 0.1 μM, 1 μM or 10 μM for 3 hours, after which the compound was removed from the media flow. The protocol was chosen as it was analogous to how the compound has been evaluated in vivo. […]

Consider 4 compounds from patent publication US20210340572A1, “HIGH-CONTENT IMAGING OF MICROFLUIDIC DEVICES” (EMULATE, Inc., priority 2019, published 2021).

In general, IC50 refers to the concentration needed to halve the response being measured.

Text for BSEP: Microfluidic devices seeded with liver cells were stained in the upper channel with 5(6)-Carboxy-2′,7′-dichlorofluorescein diacetate (CDFDA) (ThermoFisher) to visualize bile canaliculi and MRP2 activity, cholyl-lysyl-fluorescein (CLF) (Corning) to visualize bile canaliculi and BSEP activity, Nile red (ThermoFisher) or AdipoRed (Lonza) to visualize lipid droplet accumulation, Tetramethylrhodamine, methyl ester (TMRM) (ThermoFisher) to visualize active mitochondria, and CellROX® (ThermoFisher) to visualize cellular oxidative stress. Each staining solution was prepared in blank medium or compound dosing medium and added to the upper channel, incubated for 15 minutes at 37° C., and washed three times with medium. The stained microfluidic devices were imaged using a specific filter, and were de-blurred with Olympus cellSens software. Using ImageJ-Fiji, the fluorescent channel images were histogram adjusted to remove background, followed by fluorescence quantification using the Integrated Density calculation function.
Both a brightfield and a fluorescence image was taken from each field of view. […] These criteria were determined empirically using a small test set of images and then applied to images for the analysis. […] The data for treated and control samples were quantified by computing the area percentage of CLF-labeled bile canaliculi within each field of view (FOV).

As to `CC(=O)Nc1ccc(O)cc1` [APAP, acetaminophen], in [1], the “APAP glucuronide in parenchymal and vascular channels” value was “significant amounts”. For the same compound, the “albumin synthesis / secretion” value in data set [2] (quadruple-cell human chips, 7 days) was “decreased”.

In the case of `CN(C)CC(=O)N1CCC(c2ccc(NC(=O)c3nc(C#N)c[nH]3)c(C3=CCCCC3)c2)CC1` [JNJ compound], in data set [3], the “healthy subjects with elevation of alanine aminotransferase (ALT)” value is on record as 3/12 and the “healthy subjects with elevation of aspartate aminotransferase (AST)” value is 7/12. In addition, in data set [4], the “microscopic changes in the liver” value is “without any correlative microscopic changes” and the transaminases result is “Dose-related elevation”. Further, the “Kupffer cells (CD68-positive cells)” value with Kupffer cells was “decreased number”. Moreover, in data set [5], the “microscopic changes in the liver” value is recorded as “without any correlative microscopic changes” and the transaminases entry is “Dose-related elevation”. In data set [6], the “interleukin 6 (IL-6) in the vascular channel” value is listed as “dose-dependent decrease” and the “monocyte chemoattractant protein-1 (MCP-1) in the vascular channel” value is recorded as “dose-dependent decrease”.

Take `COc1ccccc1Oc1c(NS(=O)(=O)c2ccc(C(C)(C)C)cc2)nc(-c2ncccn2)nc1OCCO` [bosentan]: the “plasma concentration (Cmax) associated with DILI in humans” value in data set [7] is 7.4 µM. The half-inhibitory concentration (IC50) in data set [8] was > 100 µM; in [9] it was 30 µM; in data set [2] (72 h, dual-cell human chips, daily administration 1-100 μM, 3 days, read-out: IC50, decrease in albumin secretion), 10 µM. For the same compound, the “IC50 in 3D human spheroid hepatic cultures relative to human chip” value in data set [10] is “more than 10 fold higher”. Moreover, the “intracellular accumulation of CLF” value on BSEP is on record as “intracellular accumulation”. Further, the “reduction in CLF efflux” value at BSEP (co-treatment with CLF) was > 50%.

For the compound `CN[C@@H]1C[C@H]2O[C@@](C)([C@@H]1OC)n1c3ccccc3c3c4c(c5c6ccccc6n2c5c31)C(=O)NC4` [staurosporine], in data set [11], the “LSECs (cell number)” value is listed as “complete loss of LSECs”, the “apoptotic marker (CC3)” value is “marked increases” and the hepatocyte cell number result is “little if any effect”.
